Data as given in patent US20190234956A1 (priority 2016, published 2019).

Tests used:
Ms sGC-NT23 [1] = assay: Determination of CO dissociation constants, Ms sGC-NT23; assay type: binding, Manduca sexta; conditions: stimulator 5 μM, versus no stimulator
[2] = tested on: bacterial H-NOX proteins (Cb SONO, Ns H-NOX, So H-NOX, Sw H-NOX); assay type: binding
Ms sGC-NT23 [3] = assay: Photoaffinity labeling with IWP-854, western blot, Ms sGC-NT23; assay type: binding, Manduca sexta
Ms sGC-β1 = assay: Photoaffinity labeling with IWP-854, western blot, Ms sGC-β1; assay type: binding, Manduca sexta
[4] = tested on: bacterial H-NOX proteins (Cb SONO, Ns H-NOX, So H-NOX, Sw H-NOX); assay type: binding; remark: listed apart in the source
Compound solubility = assay type: physicochemical
[5] = background statement; cited from earlier work
human sGC = molecular target: T1, human sGC (Homo sapiens, UniProt Q02153); assay: cGMP measurement, catalytic activity of human sGC in transfected HEK293T lysate; assay type: biochemical; conditions: stimulator 5 μM
T1 construct: Hs SGC-β1 (β1 1-619-His6); expressed in transfected cells; host or cells: HEK293T
T1 sequence (Q02153 1-619): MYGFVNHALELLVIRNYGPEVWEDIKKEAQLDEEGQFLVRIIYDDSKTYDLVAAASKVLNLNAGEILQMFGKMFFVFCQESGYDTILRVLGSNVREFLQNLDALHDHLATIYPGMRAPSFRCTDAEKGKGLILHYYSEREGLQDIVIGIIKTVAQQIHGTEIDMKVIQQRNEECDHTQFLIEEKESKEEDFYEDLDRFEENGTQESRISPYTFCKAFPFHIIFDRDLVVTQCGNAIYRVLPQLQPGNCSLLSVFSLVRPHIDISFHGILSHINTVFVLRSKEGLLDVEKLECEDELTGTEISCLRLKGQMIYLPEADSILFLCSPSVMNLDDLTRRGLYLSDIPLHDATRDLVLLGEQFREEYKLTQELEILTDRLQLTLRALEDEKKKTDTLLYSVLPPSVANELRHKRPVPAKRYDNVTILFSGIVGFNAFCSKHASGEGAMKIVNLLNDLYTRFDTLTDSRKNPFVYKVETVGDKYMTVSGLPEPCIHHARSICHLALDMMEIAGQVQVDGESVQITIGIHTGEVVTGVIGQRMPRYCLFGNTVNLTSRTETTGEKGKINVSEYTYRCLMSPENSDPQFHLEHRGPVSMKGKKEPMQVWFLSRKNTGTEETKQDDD
T1 sequence (Q02108 1-690 partner): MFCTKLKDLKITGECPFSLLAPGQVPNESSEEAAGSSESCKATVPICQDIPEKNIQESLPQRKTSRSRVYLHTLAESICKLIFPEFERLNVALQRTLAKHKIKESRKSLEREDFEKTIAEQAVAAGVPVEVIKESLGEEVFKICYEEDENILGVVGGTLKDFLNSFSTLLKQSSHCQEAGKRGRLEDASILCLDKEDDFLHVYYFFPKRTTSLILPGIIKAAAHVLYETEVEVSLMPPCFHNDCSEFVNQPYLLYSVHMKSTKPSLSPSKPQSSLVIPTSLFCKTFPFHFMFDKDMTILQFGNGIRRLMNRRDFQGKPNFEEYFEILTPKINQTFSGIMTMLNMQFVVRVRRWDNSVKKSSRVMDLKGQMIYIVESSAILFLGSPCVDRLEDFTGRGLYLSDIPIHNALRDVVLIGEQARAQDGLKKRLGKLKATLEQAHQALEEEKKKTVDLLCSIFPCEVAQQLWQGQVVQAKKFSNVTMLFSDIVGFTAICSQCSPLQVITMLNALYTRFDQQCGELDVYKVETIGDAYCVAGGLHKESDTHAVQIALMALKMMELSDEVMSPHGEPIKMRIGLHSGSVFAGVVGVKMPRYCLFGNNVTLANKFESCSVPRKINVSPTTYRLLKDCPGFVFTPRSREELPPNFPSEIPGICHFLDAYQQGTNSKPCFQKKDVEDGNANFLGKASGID

full-length Hs sGC = molecular target: T2, full-length Hs sGC (Homo sapiens, UniProt Q02153); assay: Photoaffinity labeling with IWP-854, western blot, full-length Hs sGC; assay type: binding; conditions: IWP-854 1 μM; not competed away with excess stimulator
T2 construct: Full-length human sGC was purchased from Enzo Life Sciences, Inc; purchased Enzo Life Sciences, Inc
T2 sequence (Q02153 1-619): T1 sequence (Q02153 1-619)
T2 sequence (Q02108 1-690 partner): T1 sequence (Q02108 1-690 partner)

Compound	enhancement of CO affinity (Ms sGC-NT23 [1])	enhancement of CO binding [2]	competition of IWP-854 cross-linking (Ms sGC-NT23 [3]; BAY 41-2272 1-25 μM against IWP-854 1 μM)	competition of IWP-854 labeling (Ms sGC-β1; BAY 41-2272 against IWP-854)	competition of IWP-854 labeling [4]	compound solubility (Compound solubility)	solubility compared with traditional stimulators [5]	increase of sGC activity over basal levels (human sGC; absence of added NO)	stimulation of recombinant human sGC, compared with BAY 41-2272 (human sGC; basal and NO stimulated)	increase of sGC activity over basal (human sGC; upon addition of NO (DEA/NO 100 μM))	subunit cross-linked by IWP-854 (Ms sGC-NT23 [3]; IWP-854 1 μM, 15 min UV, anti-biotin western blot)	labeling of the α1 subunit (full-length Hs sGC)	labeling of the isolated β1 subunit (Ms sGC-β1; β1 residues 1-380)	amount of IWP-854 required for photoaffinity labeling relative to sGC constructs [4]	labeling of bacterial H-NOX proteins [4]
Nc1nc(-c2nn(Cc3ccccc3F)c3ncccc23)ncc1C1CC1 [BAY 41-2272, reference compound]	14 fold	did not enhance CO binding	attenuated IWP-854 cross-linking to Ms sGC-NT23 in a concentration-dependent manner	failed to diminish IWP-854 labeling	reduced but not eliminated	poor compound solubility									
O=c1[nH]c(-c2cc(-c3ccon3)n(Cc3ccccc3F)n2)ncc1F [IWP-051]							improved solubility over traditional stimulators								
CC1(CCCN(CCOCCOCCOCCOCCC(=O)NCCOCCOCCOCCOCCOCCOCCOCCOCCOCCOCCOC(C)(C)CCNC(=O)CCCCC2SC[C@@H]3NC(=O)N[C@H]23)c2nc(-c3cc(-c4ccon4)n(Cc4ccccc4F)n3)ncc2F)N=N1 (stereo partly shown) [IWP-854]	34 fold							12 fold	stimulate to a similar extent as BAY 41-2272	84 fold	cross-links exclusively to the β1 subunit	Faint labeling was observed on the α1 subunit	labeled the isolated β1 subunit	10 fold	labeled all four bacterial H-NOX proteins
